Experimental data taken from US7553867B2, “Furan or thiophene derivative and medicinal use thereof” (Takeda Pharmaceutical Company Limited, priority 2002, dated 2009).

Structure (SMILES)	melting point
Cc1oc(-c2ccc(C(F)(F)F)cc2)cc1COc1ccc(OC(C)(C)C(=O)O)c(F)c1 [Example 6(68), 2-[2-Fluoro-4-({2-methyl-5-[4-(trifluoromethyl)phenyl]-3-furyl}methoxy)phenoxy]-2-methylpropionic acid]	82 to 83 °C
Cc1oc(-c2ccc(C(F)(F)F)cc2)cc1COc1cccc(COC(C)(C)C(=O)O)c1 [Example 6(70), 2-Methyl-2-{[3-({2-methyl-5-[4-(trifluoromethyl)phenyl]-3-furyl}methoxy)benzyl]oxy}propionic acid]	95 to 96 °C
CCC(Cc1ccc(OCc2cc(-c3ccc(C(F)(F)F)cc3)oc2C)cc1C)C(=O)O (stereo not shown) [Example 6(75), 2-[2-Methyl-4-({2-methyl-5-[4-(trifluoromethyl)phenyl]-3-furyl}methoxy)benzyl]butanoic acid]	118 to 119 °C
Cc1cc(OCc2cc(-c3ccc(C(F)(F)F)cc3)oc2C)ccc1CC(C)C(=O)O (stereo not shown) [Example 6(76), 2-Methyl-3-[2-methyl-4-({2-methyl-5-[4-(trifluoromethyl)phenyl]-3-furyl}methoxy)phenyl]propionic acid]	96 to 97 °C
COC(Cc1ccc(OCc2cc(-c3ccc(C(F)(F)F)cc3)oc2C)cc1C)C(=O)O (stereo not shown) [Example 6(77), 2-Methoxy-3-[2-methyl-4-({2-methyl-5-[4-(trifluoromethyl)phenyl]-3-furyl}methoxy)phenyl]propionic acid]	125 to 126 °C
Cc1oc(-c2ccc(C(F)(F)F)cc2)cc1COc1ccc(CC(C)(C)C(=O)O)cc1 [Example 6(78), 2,2-Dimethyl-3-[4-({2-methyl-5-[4-(trifluoromethyl)phenyl]-3-furyl}methoxy)phenyl]propionic acid]	125 to 127 °C
COc1cc(CC(=O)O)ccc1OCc1cc(-c2ccc(C(F)(F)F)cc2)oc1C [Example 6(81), [3-Methoxy-4-({2-methyl-5-[4-(trifluoromethyl)phenyl]-3-furyl}methoxy)phenyl]acetic acid]	139 to 140 °C
COc1ccc(CCC(=O)O)cc1OCc1cc(-c2ccc(C(F)(F)F)cc2)oc1C [Example 6(82), 3-[4-Methoxy-3-({2-methyl-5-[4-(trifluoromethyl)phenyl]-3-furyl}methoxy)phenyl]propionic acid]	128 to 129 °C
Cc1oc(-c2ccc(C(F)(F)F)cc2)cc1CCOc1cccc(CC(=O)O)c1 [Example 6(83), [3-(2-{2-Methyl-5-[4-(trifluoromethyl)phenyl]-3-furyl}ethoxy)phenyl]acetic acid]	92 to 94 °C
Cc1oc(-c2ccc(C(F)(F)F)cc2)cc1CCCOc1cccc(CC(=O)O)c1 [Example 6(84), [3-(3-{2-Methyl-5-[4-(trifluoromethyl)phenyl]-3-furyl}propoxy)phenyl]acetic acid]	111 to 113 °C
Cc1oc(-c2ccc(C(F)(F)F)cc2)cc1COc1cccc(C(C)(C)C(=O)O)c1 [Example 6(85), 2-Methyl-2-[3-({2-methyl-5-[4-(trifluoromethyl)phenyl]-3-furyl}methoxy)phenyl]propionic acid]	127 to 128 °C

More lines, now with the values ahead:

melting point	Structure (SMILES)
105 to 107 °C	Cc1oc(-c2ccc(C(F)(F)F)cc2)cc1COc1ccc(C(C)(C)C(=O)O)cc1 [Example 6(86), 2-Methyl-2-[4-({2-methyl-5-[4-(trifluoromethyl)phenyl]-3-furyl}methoxy)phenyl]propionic acid]
118 to 119 °C	Cc1oc(-c2ccc(C(F)(F)F)cc2)cc1COc1cccc(OCC(=O)O)c1 [Example 6(87), [3-({2-Methyl-5-[4-(trifluoromethyl)phenyl]-3-furyl}methoxy)phenoxy]acetic acid]
128 to 129 °C	Cc1oc(-c2ccc(C(F)(F)F)cc2)cc1COc1ccc(SC(C)(C)C(=O)O)cc1 [Example 6(88), 2-Methyl-2-{[4-({2-methyl-5-[4-(trifluoromethyl)phenyl]-3-furyl}methoxy)phenyl]thio}propionic acid]
156 to 157 °C	Cc1oc(-c2ccc(C(F)(F)F)cc2)cc1COc1ccc2oc(CCC(=O)O)cc2c1 [Example 6(89), 3-[5-({2-Methyl-5-[4-(trifluoromethyl)phenyl]-3-furyl}methoxy)-1-benzofuran-2-yl]propionic acid]
140 to 142 °C	Cc1oc(-c2ccc(C(F)(F)F)cc2)cc1COc1ccc2oc(CC(=O)O)cc2c1 [Example 6(90), [5-({2-Methyl-5-[4-(trifluoromethyl)phenyl]-3-furyl}methoxy)-1-benzofuran-2-yl]acetic acid]
129 to 131 °C	CCCc1cc(OCc2cc(-c3ccc(C(F)(F)F)cc3)oc2C)ccc1CCC(=O)O [Example 6(91), 3-[4-({2-Methyl-5-[4-(trifluoromethyl)phenyl]-3-furyl}methoxy)-2-propylphenyl]propionic acid]
92 to 93 °C	Cc1oc(-c2ccc(C(F)(F)F)cc2)cc1COc1ccc(OC(C)(C)C(=O)O)c(Cl)c1 [Example 6(92), 2-[2-Chloro-4-({2-methyl-5-[4-(trifluoromethyl)phenyl]-3-furyl}methoxy)phenoxy]-2-methylpropionic acid]
112 to 113 °C	CCc1oc(-c2ccc(C(F)(F)F)cc2)cc1CCCOc1ccc(CC(=O)O)cc1Cl [Example 6(93), [3-Chloro-4-(3-{2-ethyl-5-[4-(trifluoromethyl)phenyl]-3-furyl}propoxy)phenyl]acetic acid]
120 to 123 °C	Cc1oc(-c2ccc(C(F)(F)F)cc2)cc1COc1cc(CSC(C)(C)C(=O)O)ccc1F [Example 6(94), 2-{[4-Fluoro-3-({2-methyl-5-[4-(trifluoromethyl)phenyl]-3-furyl}methoxy)benzyl]thio}-2-methylpropionic acid]
131 to 132 °C	Cc1oc(-c2ccc(C(F)(F)F)cc2)cc1COc1ccc(F)c(CSC(C)(C)C(=O)O)c1 [Example 6(95), 2-{[2-Fluoro-5-({2-methyl-5-[4-(trifluoromethyl)phenyl]-3-furyl}methoxy)benzyl]thio}-2-methylpropionic acid]
106 to 108 °C	Cc1oc(-c2ccc(C(F)(F)F)cc2)cc1COc1cccc(CSC(C)(C)C(=O)O)c1F [Example 6(96), 2-{[2-Fluoro-3-({2-methyl-5-[4-(trifluoromethyl)phenyl]-3-furyl}methoxy)benzyl]thio}-2-methylpropionic acid]
92 to 93 °C	CCc1oc(-c2ccc(C(F)(F)F)cc2)cc1CCCOc1cccc(CC(=O)O)c1F [Example 6(97), [3-(3-{2-Ethyl-5-[4-(trifluoromethyl)phenyl]-3-furyl}propoxy)-2-fluorophenyl]acetic acid]
104 to 105 °C	CCc1oc(-c2ccc(C(F)(F)F)cc2)cc1CCCOc1cc(CC(=O)O)ccc1Cl [Example 6(98), [4-Chloro-3-(3-{2-ethyl-5-[4-(trifluoromethyl)phenyl]-3-furyl}propoxy)phenyl]acetic acid]
140 to 142 °C	Cc1oc(-c2ccc(C(F)(F)F)cc2)cc1COc1cc(CSC(C)(C)C(=O)O)ccc1Cl [Example 6(99), 2-{[4-Chloro-3-({2-methyl-5-[4-(trifluoromethyl)phenyl]-3-furyl}methoxy)benzyl]thio}-2-methylpropionic acid]
